Assay results reported in ChEMBL document CHEMBL5506019 (J Med Chem, 2024).
Activity calls are given as the source filed them. The calls are words filed in the database; no cut-off is given here.

Legend:
Format in all cases: functional, cell-based
[1] = biological target: T1, 5-hydroxytryptamine receptor 2C (Homo sapiens) (UniProt P28335); assay: Agonist activity at human 5-HT2CR expressed in HEK293 cells upto 50 uM incubated upto 90 sec by Fluo-4 AM dye based Ca2+ imaging assay
T1 sequence (whole entry): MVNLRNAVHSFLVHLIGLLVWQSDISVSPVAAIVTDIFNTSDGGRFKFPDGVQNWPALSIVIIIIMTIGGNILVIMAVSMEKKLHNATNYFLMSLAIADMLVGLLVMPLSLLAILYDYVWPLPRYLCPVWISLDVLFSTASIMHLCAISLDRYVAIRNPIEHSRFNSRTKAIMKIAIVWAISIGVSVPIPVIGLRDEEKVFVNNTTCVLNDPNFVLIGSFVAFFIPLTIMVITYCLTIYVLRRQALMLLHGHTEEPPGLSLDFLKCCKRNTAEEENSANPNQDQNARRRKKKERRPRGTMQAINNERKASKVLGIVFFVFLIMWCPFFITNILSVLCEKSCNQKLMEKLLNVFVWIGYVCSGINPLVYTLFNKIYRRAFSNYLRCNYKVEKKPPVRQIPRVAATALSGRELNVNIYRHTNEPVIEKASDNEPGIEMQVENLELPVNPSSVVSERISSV

[2] = biological target: T2, 5-hydroxytryptamine receptor 2A (Homo sapiens, UniProt P28223); assay: Agonist activity at human 5-HT2AR expressed in HEK293 cells upto 50 uM incubated upto 90 sec by Fluo-4 AM dye based Ca2+ imaging assay
T2 sequence (P28223 whole entry): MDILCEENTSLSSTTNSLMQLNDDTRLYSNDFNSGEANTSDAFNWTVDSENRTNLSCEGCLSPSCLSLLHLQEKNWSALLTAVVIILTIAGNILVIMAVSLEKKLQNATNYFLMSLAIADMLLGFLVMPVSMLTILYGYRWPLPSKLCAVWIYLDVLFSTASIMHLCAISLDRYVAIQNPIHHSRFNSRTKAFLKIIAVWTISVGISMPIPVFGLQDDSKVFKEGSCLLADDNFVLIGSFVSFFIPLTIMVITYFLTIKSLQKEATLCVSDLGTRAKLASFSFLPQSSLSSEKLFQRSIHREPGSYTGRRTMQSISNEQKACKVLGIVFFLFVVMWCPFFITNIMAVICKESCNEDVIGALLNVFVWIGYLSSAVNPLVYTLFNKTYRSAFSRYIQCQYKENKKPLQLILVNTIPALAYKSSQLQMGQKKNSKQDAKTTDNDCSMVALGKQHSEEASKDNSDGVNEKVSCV

[3] = biological target: T2, 5-hydroxytryptamine receptor 2A; assay: Agonist activity at human 5-HT2AR expressed in HEK293 cells incubated upto 90 sec by Fluo-4 AM dye based Ca2+ imaging assay
[4] = biological target: T2, 5-hydroxytryptamine receptor 2A; assay: Agonist activity at human 5-HT2AR expressed in HEK293 cells assessed as maximal response incubated upto 90 sec by Fluo-4 AM dye based Ca2+ imaging assay relative to 5-HT; conditions: filed as agonist

## CCN1CCC[C@@H](c2cc(OC)c(C(F)(F)F)cc2OC)C1
[1]
  Activity: inactive

## CCOc1cc(C(F)(F)F)c(OCC)cc1C1CCCNC1 (stereo in doubt)
[1]
  Activity: inactive

## CCOc1cc(C(F)(F)F)c(OCC)cc1C1CCCNC1 (stereo in doubt; 26(eu))
[1]
  Activity: inactive

## CCN1CCC[C@H](c2cc(OC)c(C(F)(F)F)cc2OC)C1
[1]
  Activity: inactive
[2]
  Activity: inactive

## FC(F)(F)c1ccc(C2CCCNC2)cc1 (racemic)
[1]
  Activity: inactive
[2]
  Activity: inactive

## COc1cc(CCN)c(OC)cc1Br
[3]
  EC50: 1.6 nM
[4]
  Rmax: 68%

## COc1ccc(OC)c(C2CCCNC2)c1 (racemic)
[1]
  Activity: inactive
[2]
  Activity: inactive

## COc1cc(C2CCCNC2)ccc1C(F)(F)F (configuration not stated)
[1]
  Activity: inactive
